For one compound, log10cfu and Activity results are on record in ChEMBL document CHEMBL1240356, “Efficacy profiles of daptomycin for treatment of invasive and noninvasive pulmonary infections with Streptococcus pneumoniae” (2010).

Structures are written as SMILES. Activity calls are given as the source filed them. No cut-off for these calls is given here.

Test [1] concerns Streptococcus pneumoniae. Description: Antibacterial activity against high dose 1.5 x 10^7 CFU Streptococcus pneumoniae serotype 2 infected in semitherapeutic C57BL/6 mouse model assessed as bacterial count in spleen at 6 mg/kg, ip measured after 2 days post infection. The format is functional. As to conditions: route intraperitoneal.
Test [2] relates to Streptococcus pneumoniae. Description: Antibacterial activity against high dose 1.5 x 10^7 CFU Streptococcus pneumoniae serotype 2 infected in semitherapeutic C57BL/6 mouse model assessed as reduction of bacteremia at 6 mg/kg, ip measured after 5 day post infection. Further details: dose 6 mg/kg. The format is functional, organism-based.

As to `CCCCCCCCCC(=O)N[C@@H](Cc1c[nH]c2ccccc12)C(=O)N[C@H](CC(N)=O)C(=O)N[C@@H](CC(=O)O)C(=O)N[C@@H]1C(=O)NCC(=O)N[C@@H](CCCN)C(=O)N[C@@H](CC(=O)O)C(=O)N[C@H](C)C(=O)N[C@@H](CC(=O)O)C(=O)NCC(=O)N[C@H](CO)C(=O)N[C@@H]([C@H](C)CC(=O)O)C(=O)N[C@@H](CC(=O)c2ccccc2N)C(=O)O[C@@H]1C`, the log10cfu in test [1] was found to be 0.4. Moreover, in test [2], the result was Active.
